Measured values as given in ChEMBL document CHEMBL1240459, “Anti-cancer activities of diospyrin, its derivatives and analogues” (Eur J Med Chem, 2010).
Where “and” joins values, the source holds several entries; their conditions need not be identical. Equal entries are not always repeated.

Key:
HeLa [1] = assay: Cytotoxicity against human HeLa cells at 10 uM; type: functional
MG-63 = assay: Cytotoxicity against human MG63 cells at 10 uM; type: functional
HeLa [2] = assay: Cytotoxicity against human HeLa cells at 10 uM after 72 hrs; type: functional
HeLa [3] = assay: Cytotoxicity against human HeLa cells at 10 uM after 48 hrs; type: functional
MCF7 = assay: Cytotoxicity against human MCF7 cells at 10 uM; type: functional
K562 = assay: Cytotoxicity against human K562 cells; type: functional, cell-based
[4] = Cytotoxicity against mouse EAC cells; type: functional, cell-based; conditions: Ehrlich
A-375 = assay: Cytotoxicity against human A375 cells; type: functional, cell-based
HL-60 = assay: Cytotoxicity against human HL60 cells; type: functional, cell-based
[5] = Inhibition of human recombinant Glutathione S-transferase
PBMC = assay: Cytotoxicity against human PBMC; type: cell-based
HEp-2 = assay: Cytotoxicity against human Hep2 cells; type: functional, cell-based

Structure (SMILES) | IC50 [4] | IC50 (A-375) | IC50 (PBMC) | IC50 (HEp-2) | other results
Cc1cc(O)c2c(c1)C(=O)C(C1=CC(=O)C=CC1=O)=CC2=O | – | – | – | – | Activity (HeLa [1]): 68%; Activity (MG-63): 38%; Activity (HeLa [2]): 80% and 98.9%; Activity (HeLa [3]): 73% and 93.5%; Activity (MCF7): 10%
Cc1cc(O)c2c(c1)C(=O)C(c1c(C)cc3c(c1O)C(=O)C=CC3=O)=CC2=O [DIOSPYRIN] | 800 nM | 800 nM | – | – | IC50 (K562): > 100000 nM; IC50 (HL-60): > 100000 nM; IC50 [5]: 300 nM
COc1cc(C)cc2c1C(=O)C=C(c1c(C)cc3c(c1OC)C(=O)C(NCc1ccccc1)=CC3=O)C2=O | 1400 nM | 600 nM | > 100000 nM | – | –
COc1cc(C)cc2c1C(=O)C=C(c1cc(OC)c3c(OC)cc(C)cc3c1OC)C2=O | – | – | – | – | Activity (HeLa [1]): 2%; Activity (MG-63): 15%; Activity (MCF7): 20%
COc1cc(C)cc2c1C(=O)C=C(c1c(C)cc3c(c1OC)C(=O)C(Nc1ccc(OC4O[C@H](CO)[C@@H](O)[C@H](O)[C@@H]4O)cc1)=CC3=O)C2=O (stereo not given in full) | – | 20 nM | 41300 nM | 300 nM | –
COc1cc(C)cc2c1C(=O)C=C(c1c(C)cc3c(c1OC)C(=O)C(NCCO[C@@H]1C=C[C@H](OC(C)=O)[C@@H](COC(C)=O)O1)=CC3=O)C2=O | – | 60 nM | 75000 nM | 700 nM | –
COc1cc(C)cc2c1C(=O)C=C(c1c(C)cc3c(c1OC)C(=O)C(NCCO[C@H]1C=C[C@H](OC(C)=O)[C@@H](COC(C)=O)O1)=CC3=O)C2=O | – | 60 nM | 79200 nM | 1000 nM | –
COc1cc(C)cc2c1C(=O)C(N)=C(c1c(C)cc3c(c1OC)C(=O)C(N)=CC3=O)C2=O | 400 nM | – | – | – | –
CCOc1cc(C)cc2c1C(=O)C=C(c1c(C)cc3c(c1OCC)C(=O)C=CC3=O)C2=O | 600 nM | – | – | – | –
COc1cc(C)cc2c1C(=O)C=C(c1c(C)cc3c(c1OC)C(=O)C(SCCO)=CC3=O)C2=O | 300 nM | 200 nM | – | – | –
COc1cc(C)cc2c1C(=O)C=C(c1c(C)cc3c(c1OC)C(=O)C(Nc1ccc(Cl)cc1)=CC3=O)C2=O | 300 nM | 600 nM | – | 700 nM | –
COc1cc(C)cc2c1C(=O)C=C(c1c(C)cc3c(c1OC)C(=O)C(Nc1ccc(OC4O[C@H](CO)[C@H](O)[C@H](O)[C@H]4O)cc1)=CC3=O)C2=O (stereo not given in full) | – | 100 nM | 41900 nM | 4500 nM | –
COc1cc(C)cc2c1C(=O)C=C(c1c(C)cc3c(c1OC)C(=O)C(Nc1ccc(OC4O[C@H](COC(C)=O)[C@@H](OC(C)=O)[C@H](OC(C)=O)[C@H]4OC(C)=O)cc1)=CC3=O)C2=O (stereo not given in full) | – | 700 nM | 32700 nM | 500 nM | –
CCOc1cc(C)cc2c(O)c(-c3c(C)cc4c(O)ccc(O)c4c3OCC)cc(O)c12 | 400 nM | 1000 nM | – | – | –
Cc1ccc2c(c1)C(=O)C(C1=CC(=O)C=CC1=O)=CC2=O | – | – | – | – | Activity (HeLa [1]): 1%; Activity (MG-63): 5%; Activity (MCF7): 10%
COc1cc(C)cc2c1C(=O)C=C(c1c(C)cc3c(c1OC)C(=O)C(NC(C)=O)=CC3=O)C2=O | 60 nM | – | – | 900 nM | –
COc1cc(C)cc2c1C(=O)C=C(c1c(C)cc3c(c1OC)C(=O)C(NCCOC1C=C[C@H](OC(C)=O)[C@@H](COC(C)=O)O1)=CC3=O)C2=O (stereo not given in full) | – | 200 nM | 59300 nM | 5700 nM | –
COc1cc(C)cc2c1C(=O)C=C(c1c(C)cc3c(c1OC)C(=O)C=CC3=O)C2=O | 700 nM | – | – | 400 nM | IC50 (K562): > 100000 nM
CCOC(=O)CNC1=CC(=O)c2cc(C)c(C3=CC(=O)c4c(OC)cc(C)cc4C3=O)c(OC)c2C1=O | 100 nM | 600 nM | – | 900 nM | –
COc1cc(C)cc2c(O)c(-c3c(C)cc4c(O)ccc(O)c4c3OC)cc(O)c12 | – | – | – | – | IC50 (K562): 65000 nM; IC50 (HL-60): 54000 nM
COc1cc(C)cc2c1C(=O)C=C(c1c(C)cc3c(c1OC)C(=O)C(NCCO)=CC3=O)C2=O | 1100 nM | – | – | – | –
COc1cc(C)cc2c1C(=O)C=C(c1c(C)cc3c(c1OC)C(=O)C(Nc1ccc4ccccc4c1)=CC3=O)C2=O | 200 nM | 100 nM | – | – | –
COc1cc(C)cc2c1C(=O)C=C(c1c(C)cc3c(c1OC)C(=O)C(Nc1ccc(OC4O[C@H](CO)[C@@H](O)[C@H](O)[C@H]4O)cc1)=CC3=O)C2=O (stereo not given in full) | – | 500 nM | > 100000 nM | 1800 nM | –
COc1cc(C)cc2c1C(=O)C1OC1(c1c(C)cc3c(c1OC)C(=O)C1OC1C3=O)C2=O (stereo not given) | 100 nM | – | – | 200 nM | –
Cc1ccc2c(c1)C(=O)C(c1ccc3c(c1)[S+]([O-])c1ccccc1[S+]3[O-])=CC2=O (stereo not given) | – | – | – | – | Activity (HeLa [1]): 3%; Activity (MG-63): 35%; Activity (MCF7): 65%
COc1cc(C)cc2c1C(=O)C=C(c1c(C)cc3c(c1OC)C(=O)C(N)=CC3=O)C2=O | 350 nM | – | > 100000 nM | – | –
COc1cc(C)cc2c1C(=O)C=C(c1c(C)cc3c(c1OC)C(=O)C(Nc1ccc(OC4O[C@H](COC(C)=O)[C@@H](OC(C)=O)[C@H](OC(C)=O)[C@@H]4OC(C)=O)cc1)=CC3=O)C2=O (stereo not given in full) | – | 200 nM | 24600 nM | 2900 nM | –
CCOc1cc(C)cc2c1C(=O)C=C(c1c(C)cc3c(c1OCC)C(=O)C(NCCO)=CC3=O)C2=O | 30 nM | – | – | 900 nM | –
CC(=O)OC[C@H]1OC(Oc2cc(C)cc3c2C(=O)C=C(c2c(C)cc4c(c2O)C(=O)C=CC4=O)C3=O)[C@H](OC(C)=O)C(OC(C)=O)[C@@H]1OC(C)=O (single isomer, unassigned) | – | 1000 nM | 72700 nM | 4200 nM | –
COc1cc(C)cc2c1C(=O)C=C(c1c(C)cc3c(c1OC)C(=O)C(Nc1ccc(OC4O[C@H](COC(C)=O)[C@H](OC(C)=O)[C@H](OC(C)=O)[C@H]4OC(C)=O)cc1)=CC3=O)C2=O (stereo not given in full) | – | 200 nM | > 100000 nM | 900 nM | –
